In patent publication US20260216238A1, “TETRATHIOMOLYBDIC ACID FOR USE IN TREATING COPPER METABOLISM-ASSOCIATED DISEASES OR DISORDERS (WILSON DISEASE)” (Alexion Pharmaceuticals, Inc., priority 2023, published 2026):

Tested on: patients with Wilson disease (WD)
Test: UWDRS Part III total score, functional subscale and individual items (neurological examination)
Assay type: in vivo, human
Details: for UWDRS Part III change from baseline, LSM Diff (TTM vs SoC) / UWDRS Part III change from baseline, Mean / UWDRS Part III change from baseline, Median / UWDRS Part III change from baseline, LSM: patients symptomatic at baseline; for UWDRS Part III change from baseline, LSM: MMRM; for UWDRS Part III (0-175) change from baseline, LSM / UWDRS Part III (0-175) change from baseline, Mean / UWDRS Part III functional subscale (0-10) change from baseline, LSM / UWDRS Part III functional subscale (0-10) change from baseline, Mean / UWDRS Part III-arising from chair (0-4) change from baseline, LSM / UWDRS Part III-arising from chair (0-4) change from baseline, Mean / UWDRS Part III-gait (0-4) change from baseline, LSM / UWDRS Part III-gait (0-4) change from baseline, Mean / UWDRS Part III-handwriting (0-4) change from baseline, LSM / UWDRS Part III-handwriting (0-4) change from baseline, Mean / UWDRS Part III-speech (0-4) change from baseline, LSM / UWDRS Part III-speech (0-4) change from baseline, Mean: Study 301 TTM long term set
Procedure: The UWDRS scoring system was developed specifically for the motor and movement disorders associated with chronic copper neurotoxicity in WD. Some individual items/subscales of the UWDRS Part III (arising from a chair, gait, handwriting, and speech) in addition to the UWDRS Parts I, II, and III overall, were assessed to further define the range of burdensome signs and symptoms of WD, so as to further understand the assessment of treatment effects on patients with WD. The UWDRS scores for consciousness (Part I) and abnormal neurologic examination findings (Part III) will be determined by a trained neurologist rater who is blinded to study treatment randomization. These scores were used to provide a rigorous dataset for evaluating changes from baseline.
Unified Wilson Disease Rating Scale (Parts I, II, and III): The UWDRS is a clinical rating scale designed to evaluate the neurological manifestations of WD that generally can be divided into 3 movement disorder syndromes: dystonic, ataxic, and Parkinsonian syndrome. The UWDRS comprises 3 parts: UWDRS Part I (level of consciousness, item 1), UWDRS Part II (a patient-reported review of daily activity items [disability], items 2 to 11), and UWDRS Part III (a detailed neurological examination, items 12 to 34).
The UWDRS Part I and Part III were assessed by a neurologist who is blinded to the treatment randomization, while UWDRS Part II may be reported to a non-blinded member of the study team by the patient, family member, or caregiver. The UWDRS has not been formally evaluated in adolescents. However, the components of Part I (level of consciousness), Part II (patient or caregiver-reported disability) and Part III (neurologic examination findings) were not fundamentally different between adults and adolescents. Patients aged 12 years and older were expected to be able to comply with UWDRS assessments.
Pooled results from all such participants will be integrated together into one timeline to allow analyses of changes in UWDRS, long-term copper control, and long-term safety laboratory data.
Endpoints (directly measured non-ceruloplasmin-bound copper [dNCC], UWDRS III (rater blinded) total and individual item scores, Clinical Global Impression-Improvement [CGI-I]) were evaluated at baseline (BL) and Week 48 (W48). Normalization (score decrease to 0), improvement (≥1 point decrease), stability (no change), or worsening (≥1 point increase) of total and individual UWDRS III item scores were evaluated at W48.

[1] = Week 48, Cohort 1, Total (Studies 301, 201, 205), n=127

bis-choline tetrathiomolybdate [TTM] was tested, and the “UWDRS-III, Change from Baseline, Median” value [1] was −1.00, the “UWDRS-III, Change from Baseline, Min” value [1] was −48.0, and the “UWDRS-III, Change from Baseline, Q1” value [1] was −6.00,. The “UWDRS-III, Change from Baseline, Q3” value [1] was 0.00, the “UWDRS-III, Change from Baseline, LSM Diff (TTM vs. SoC)” value (Week 48, Cohort 1, TTM Total vs SoC Study 301, P-value 0.1295) was −1.97 and the “UWDRS-III, Change from Baseline, LSM” value (Week 48, Cohort 1, TTM Total, SoC Study 301) was −3.62. For the same substance, the “UWDRS Part III change from baseline, LSM Diff (TTM vs SoC)” value (from here on “UWDRS Part III change … (TTM vs SoC)”) (Week 48, Cohort 1) was −0.79, the “UWDRS Part III change from baseline, Mean” value (“UWDRS Part III change … Mean” for short) (Week 48, Cohort 1) was −2.86 and the “UWDRS Part III change from baseline, Median” value (shortened to “UWDRS Part III change … Median”) (Week 48, Cohort 1) was −2.00. For the same substance, the “UWDRS Part III change from baseline, LSM” value (Week 48, Cohort 1) was −2.68, the “UWDRS Part III change … (TTM vs SoC)” value (Week 48, Cohort 2) was 0.05 and the “UWDRS Part III change … Mean” value (Week 48, Cohort 2) was −3.10. For the same substance, the “UWDRS Part III change … Median” value (Week 48, Cohort 2) was −3.00, the “UWDRS Part III change from baseline, LSM” value (Week 48, Cohort 2) was 1.43 and the “UWDRS Part III change … (TTM vs SoC)” value (Week 48, Overall) was −0.33. For the same substance, the “UWDRS Part III change … Mean” value (Week 48, Overall) was 2.91, the “UWDRS Part III change … Median” value (Week 48, Overall) was −2.00 and the “UWDRS Part III change from baseline, LSM” value (Week 48, Overall) was −1.54. For the same substance, the “UWDRS Part III (0-175) change from baseline, LSM” value (Week 48) was −2.47, the “UWDRS Part III (0-175) change from baseline, Mean” value (Week 48) was −2.32 and the “UWDRS Part III functional subscale (0-10) change from baseline, LSM” value (Week 48) was −0.230. The “UWDRS Part III functional subscale (0-10) change from baseline, Mean” value (Week 48) was −0.235, the “UWDRS Part III-arising from chair (0-4) change from baseline, LSM” value (Week 48) was 0.0 and the “UWDRS Part III-arising from chair (0-4) change from baseline, Mean” value (Week 48) was 0.0. For the same substance, the “UWDRS Part III-gait (0-4) change from baseline, LSM” value (Week 48) was −0.26, the “UWDRS Part III-gait (0-4) change from baseline, Mean” value (Week 48) was −0.18 and the “UWDRS Part III-handwriting (0-4) change from baseline, LSM” value (Week 48) was −0.1. For the same substance, the “UWDRS Part III-handwriting (0-4) change from baseline, Mean” value (Week 48) was −0.2, the “UWDRS Part III-speech (0-4) change from baseline, LSM” value (Week 48) was −0.1 and the “UWDRS Part III-speech (0-4) change from baseline, Mean” value (Week 48) was −0.1. The “UWDRS Part III (0-175) change from baseline, LSM” value (Week 72) was −3.47, the “UWDRS Part III (0-175) change from baseline, Mean” value (Week 72) was −3.27 and the “UWDRS Part III functional subscale (0-10) change from baseline, LSM” value (Week 72) was −0.253. The “UWDRS Part III functional subscale (0-10) change from baseline, Mean” value (Week 72) was −0.290, the “UWDRS Part III-arising from chair (0-4) change from baseline, LSM” value (Week 72) was −0.1 and the “UWDRS Part III-arising from chair (0-4) change from baseline, Mean” value (Week 72) was −0.1. For the same substance, the “UWDRS Part III-gait (0-4) change from baseline, LSM” value (Week 72) was −0.15, the “UWDRS Part III-gait (0-4) change from baseline, Mean” value (Week 72) was −0.12 and the “UWDRS Part III-handwriting (0-4) change from baseline, LSM” value (Week 72) was −0.2. For the same substance, the “UWDRS Part III-handwriting (0-4) change from baseline, Mean” value (Week 72) was −0.2, the “UWDRS Part III-speech (0-4) change from baseline, LSM” value (Week 72) was −0.1 and the “UWDRS Part III-speech (0-4) change from baseline, Mean” value (Week 72) was −0.1. For the same substance, the “UWDRS Part III (0-175) change from baseline, LSM” value (Week 96) was −4.77, the “UWDRS Part III (0-175) change from baseline, Mean” value (Week 96) was −4.09 and the “UWDRS Part III functional subscale (0-10) change from baseline, LSM” value (Week 96) was −0.386. For the same substance, the “UWDRS Part III functional subscale (0-10) change from baseline, Mean” value (Week 96) was −0.503, the “UWDRS Part III-arising from chair (0-4) change from baseline, LSM” value (Week 96) was −0.1 and the “UWDRS Part III-arising from chair (0-4) change from baseline, Mean” value (Week 96) was −0.2. The “UWDRS Part III-gait (0-4) change from baseline, LSM” value (Week 96) was −0.12, the “UWDRS Part III-gait (0-4) change from baseline, Mean” value (Week 96) was −0.11 and the “UWDRS Part III-handwriting (0-4) change from baseline, LSM” value (Week 96) was −0.3. For the same substance, the “UWDRS Part III-handwriting (0-4) change from baseline, Mean” value (Week 96) was −0.4, the “UWDRS Part III-speech (0-4) change from baseline, LSM” value (Week 96) was −0.2 and the “UWDRS Part III-speech (0-4) change from baseline, Mean” value (Week 96) was −0.2. For the same substance, the “UWDRS Part III (0-175) change from baseline, LSM” value (Week 120) was −5.27, the “UWDRS Part III (0-175) change from baseline, Mean” value (Week 120) was −4.08 and the “UWDRS Part III functional subscale (0-10) change from baseline, LSM” value (Week 120) was −0.392. For the same substance, the “UWDRS Part III functional subscale (0-10) change from baseline, Mean” value (Week 120) was −0.410, the “UWDRS Part III-arising from chair (0-4) change from baseline, LSM” value (Week 120) was −0.1 and the “UWDRS Part III-arising from chair (0-4) change from baseline, Mean” value (Week 120) was −0.2. The “UWDRS Part III-gait (0-4) change from baseline, LSM” value (Week 120) was 0.04, the “UWDRS Part III-gait (0-4) change from baseline, Mean” value (Week 120) was 0.26 and the “UWDRS Part III-handwriting (0-4) change from baseline, LSM” value (Week 120) was −0.3. The “UWDRS Part III-handwriting (0-4) change from baseline, Mean” value (Week 120) was −0.5, the “UWDRS Part III-speech (0-4) change from baseline, LSM” value (Week 120) was −0.2 and the “UWDRS Part III-speech (0-4) change from baseline, Mean” value (Week 120) was −0.1. The “UWDRS Part III (0-175) change from baseline, LSM” value (Week 144) was −6.38, the “UWDRS Part III (0-175) change from baseline, Mean” value (Week 144) was −5.99 and the “UWDRS Part III functional subscale (0-10) change from baseline, LSM” value (Week 144) was −0.489. For the same substance, the “UWDRS Part III functional subscale (0-10) change from baseline, Mean” value (Week 144) was −0.573, the “UWDRS Part III-arising from chair (0-4) change from baseline, LSM” value (Week 144) was −0.2 and the “UWDRS Part III-arising from chair (0-4) change from baseline, Mean” value (Week 144) was −0.3. The “UWDRS Part III-gait (0-4) change from baseline, LSM” value (Week 144) was −0.25, the “UWDRS Part III-gait (0-4) change from baseline, Mean” value (Week 144) was 0.00 and the “UWDRS Part III-handwriting (0-4) change from baseline, LSM” value (Week 144) was −0.3.
